The values below come from patent publication US20250057873A1, “Intestinal Tumor Suppressor, PGE2 Production Inhibitor, and IL-22BP Production Promoter” (TOKYO UNIVERSITY OF SCIENCE FOUNDATION, priority 2021, published 2025).

Series [1] concerns the target T1, Dectin-1 (Mus musculus, UniProt Q6QLQ4).
T1 construct: CD11b^+ cells and CD11c^+ cells were purified from colorectal polyps with autoMACS; endogenous in cells; host or cells: primary CD11b+/CD11c+ cells or all polyp-infiltrating cells from colorectal/intestinal polyps of WT (C57BL/6J, AOM-DSS) or Apc^Min/+ mice
T1 sequence (Q6QLQ4 1-244): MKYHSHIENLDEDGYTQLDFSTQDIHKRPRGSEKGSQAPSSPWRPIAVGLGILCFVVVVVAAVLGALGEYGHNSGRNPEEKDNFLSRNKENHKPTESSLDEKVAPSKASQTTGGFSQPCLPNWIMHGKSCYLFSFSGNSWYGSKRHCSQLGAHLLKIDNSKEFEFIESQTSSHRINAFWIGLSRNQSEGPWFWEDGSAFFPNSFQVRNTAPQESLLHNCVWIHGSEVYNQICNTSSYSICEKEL
To be noted: autoimmune-prone; cited from earlier work.

Series [2] deals with T2, DECTIN-1 (Homo sapiens, UniProt Q9BXN2).
T2 construct: endogenous in cells; host or cells: tumour-infiltrating cells and small tumour tissue pieces from surgical specimens of human CRC patients
T2 sequence (Q9BXN2 1-247): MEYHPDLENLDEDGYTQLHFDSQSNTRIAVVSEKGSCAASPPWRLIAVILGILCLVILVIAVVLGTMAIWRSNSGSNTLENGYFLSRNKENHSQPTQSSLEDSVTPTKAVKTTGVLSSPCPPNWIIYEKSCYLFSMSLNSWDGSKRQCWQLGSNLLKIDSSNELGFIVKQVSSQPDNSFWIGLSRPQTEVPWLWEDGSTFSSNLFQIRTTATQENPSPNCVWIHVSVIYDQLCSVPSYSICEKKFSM
The series can be described thus: Curdlan stimulation of human CRC tissues or cancer-infiltrating leukocytes, qPCR. It counts as cell-based. To be noted: Curdlan 20 hours. As to the method: FIG. 7g: CRC samples were collected, and tumor-infiltrating cells were stimulated with Curdlan for 20 hours. In the case of the laminarin treatment, the cells were first treated with laminarin for 4 hours, and thereafter, were supplied with Curdlan and cultured. Expression of PGE2 synthesizing enzymes was determined by qPCR. Data are mean±SD of 3 wells.
FIG. 7h: CRC samples were collected, and tumor-infiltrating cells and normal tissue-infiltrating cells were stimulated with Curdlan for 20 hours. In the case of the laminarin treatment, the cells were first treated with laminarin for 4 hours, and thereafter, were supplied with Curdlan and cultured. Expression of CD33 was determined by qPCR. Data are mean±SD of 3 wells.
FIG. 13c: Fresh CRC specimens were collected after surgery, and small pieces of tumor tissues were stimulated with Curdlan for 20 hours. In the case of the laminarin treatment, the tissues were first treated with laminarin for 4 hours, and then Curdlan was added to the cultured tissues. The expression of the PGE2 synthase was determined by qPCR. The data are expressed as mean SD of 3 wells. *p<0.05, **p<0.01, and ****p<0.0001. […]

The target of series [3] is T1, Dectin-1. The series is described as follows: Stimulation of Apc^Min/+ polyp-infiltrating leukocytes / CD11b+ cells with Curdlan, with or without laminarin pre-treatment, qPCR. In kind it is cell-based. To be noted: polyp-infiltrating leukocytes from Apc^Min/+ mice, Curdlan 20 hours, qPCR. As to the method: FIG. 5f: All polyp-infiltrating cells of the Apc^Min/+ mice were collected, and were stimulated with Curdlan for 20 hours, and then the expression of the genes involved in the PGE2 synthesis was measured by qPCR. A laminarin treatment was performed for 4 hours before the Curdlan treatment.
FIG. 5g: Purified CD11b^+ polyp-infiltrating cells of the Apc^Min/+ mice were collected, and were stimulated with Curdlan for 20 hours, and then the expression of the genes involved in the PGE2 synthesis was measured by qPCR. A laminarin treatment was performed for 4 hours before the Curdlan treatment. The data in (FIGS. 5a to 5g) are representative of two independent experiments and expressed as mean±SD. *p<0.05, **p<0.01, and ***p<0.001.
Infiltrating cells in mouse/human colorectal tumor/non-tumor tissues (2×10^5) or mouse/human colorectal tumor/non-tumor tissue pieces (3 mm×3 mm cut) were cultured with Dectin-1 ligands Curdlan, OXCA, or laminarin, or with PGE2 stimulation for 20 h at 37° C. under 5% CO2 in 96-well flat-bottomed plates (Falcon, Becton Dickinson) in a volume of 0.2 ml RPMI containing 10% FBS and 1% streptomycin plus penicillin. After the culture, cells or tissues were collected and mRNA expression of tumor- or anti-tumor-associated genes was measured by qPCR described in Quantitative reverse transcription PCR section described later. […]
For orientation: In qPCR the cycle at which signal appears reflects the starting amount.

With Curdlan, the “disease induction in SKG mice” value on Dectin-1 [1] was “evokes arthritis, spondyloarthritis and ileitis”. Moreover, the “PGE2 synthase gene expression” value at DECTIN-1 [2] (CRC tissues or cancer-infiltrating leukocytes) is reported as “induction”. Besides, the “expression of CD33” value on DECTIN-1 [2] (tumor or normal tissue-infiltrating cells) was “upregulated”. The “expression of Ptges3, Ptgs1 and Ptgs2” value at Dectin-1 [3] is “significantly induced”.
